Laboratory results from ChEMBL document CHEMBL1687697 (ACS Med Chem Lett, 2010).
Activity calls are given as the source filed them. No cut-off for these calls is given here.

Target: Signal transducer and activator of transcription 3 (Homo sapiens) (UniProt P40763)
Assay: Inhibition of STAT3 in human HeLa cells after 24 hrs by luciferase reporter gene assay
Format: cell-based

Chain of Signal transducer and activator of transcription 3 (Homo sapiens) (P40763 whole entry): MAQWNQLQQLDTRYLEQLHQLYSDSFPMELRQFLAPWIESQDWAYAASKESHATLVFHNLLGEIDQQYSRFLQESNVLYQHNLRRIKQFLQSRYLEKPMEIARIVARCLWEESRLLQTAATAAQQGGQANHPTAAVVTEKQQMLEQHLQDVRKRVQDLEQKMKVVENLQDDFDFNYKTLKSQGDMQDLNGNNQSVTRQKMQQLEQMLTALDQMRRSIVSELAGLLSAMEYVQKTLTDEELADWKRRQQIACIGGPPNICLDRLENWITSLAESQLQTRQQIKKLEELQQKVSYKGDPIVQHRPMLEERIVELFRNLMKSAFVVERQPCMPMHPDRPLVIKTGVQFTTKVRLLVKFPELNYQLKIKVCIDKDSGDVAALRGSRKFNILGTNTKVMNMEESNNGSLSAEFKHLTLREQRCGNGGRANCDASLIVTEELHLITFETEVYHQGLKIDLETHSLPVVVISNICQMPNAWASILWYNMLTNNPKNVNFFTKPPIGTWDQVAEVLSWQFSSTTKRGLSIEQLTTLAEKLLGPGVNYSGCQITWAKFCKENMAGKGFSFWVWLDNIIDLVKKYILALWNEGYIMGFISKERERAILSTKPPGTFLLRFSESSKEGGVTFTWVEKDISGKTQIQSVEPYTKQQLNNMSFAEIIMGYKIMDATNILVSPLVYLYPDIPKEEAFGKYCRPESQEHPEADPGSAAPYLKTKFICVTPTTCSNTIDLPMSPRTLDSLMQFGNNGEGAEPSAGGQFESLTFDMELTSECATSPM

With `COc1ccc(C(=O)N2CCCC2=O)cc1` the inhibition was “inactive”.
